The test system of one data set is rats, mice and dogs. The following applies: range of animal species including rats; cited from earlier work.
The conditions of data set [1]: acute toxicity studies; cited from earlier work.
For a further data set, the system named is mice. The following applies: cited from earlier work.
Another data set has as its system lung cancer. The following applies: lung cancer xenograft murine model; cited from earlier work.
Another data set relates to pancreatic cancer. The following applies: pancreatic cancer xenograft murine model; cited from earlier work.
Data set [2] is described as follows: Solubility trials of QTX125 formulations (mixed 24 hours at room temperature). The format is physicochemical. The following applies: aqueous HPβCD solution (HPβCD as only excipient), aqueous with cosolvent or surfactant or cyclodextrin, thermodynamic from solid; with HPβCD alone (Example 1.3). The protocol: The parameters required for the HPLC method used to determine the concentration of QTX125 in solution is set out below.
HPLC determination of the percentage of QTX125 in the solutions below was determined using the protocols set out above.
Assay (% LC) was determined by comparing the area of the peak for QTX125 to a calibration curve determined by running samples of known concentration of QTX125 (standards) on the HPLC.

A short description of data set [3]: Genotoxicity (clastogenicity, aneugenicity).
The conditions of data set [4]: hydroxamic acids such as QTX125; cited from earlier work.
Data set [5] is described as follows: Solubility in water and stability in solution of QTX125 (background). The format is physicochemical.
The next data set relates to mantle cell lymphoma. The following applies: mantle cell lymphoma xenograft murine model; cited from earlier work.
The next data set concerns the target T1, HDAC 6 (Homo sapiens, UniProt Q9UBN7).
T1 sequence (Q9UBN7 1-1215): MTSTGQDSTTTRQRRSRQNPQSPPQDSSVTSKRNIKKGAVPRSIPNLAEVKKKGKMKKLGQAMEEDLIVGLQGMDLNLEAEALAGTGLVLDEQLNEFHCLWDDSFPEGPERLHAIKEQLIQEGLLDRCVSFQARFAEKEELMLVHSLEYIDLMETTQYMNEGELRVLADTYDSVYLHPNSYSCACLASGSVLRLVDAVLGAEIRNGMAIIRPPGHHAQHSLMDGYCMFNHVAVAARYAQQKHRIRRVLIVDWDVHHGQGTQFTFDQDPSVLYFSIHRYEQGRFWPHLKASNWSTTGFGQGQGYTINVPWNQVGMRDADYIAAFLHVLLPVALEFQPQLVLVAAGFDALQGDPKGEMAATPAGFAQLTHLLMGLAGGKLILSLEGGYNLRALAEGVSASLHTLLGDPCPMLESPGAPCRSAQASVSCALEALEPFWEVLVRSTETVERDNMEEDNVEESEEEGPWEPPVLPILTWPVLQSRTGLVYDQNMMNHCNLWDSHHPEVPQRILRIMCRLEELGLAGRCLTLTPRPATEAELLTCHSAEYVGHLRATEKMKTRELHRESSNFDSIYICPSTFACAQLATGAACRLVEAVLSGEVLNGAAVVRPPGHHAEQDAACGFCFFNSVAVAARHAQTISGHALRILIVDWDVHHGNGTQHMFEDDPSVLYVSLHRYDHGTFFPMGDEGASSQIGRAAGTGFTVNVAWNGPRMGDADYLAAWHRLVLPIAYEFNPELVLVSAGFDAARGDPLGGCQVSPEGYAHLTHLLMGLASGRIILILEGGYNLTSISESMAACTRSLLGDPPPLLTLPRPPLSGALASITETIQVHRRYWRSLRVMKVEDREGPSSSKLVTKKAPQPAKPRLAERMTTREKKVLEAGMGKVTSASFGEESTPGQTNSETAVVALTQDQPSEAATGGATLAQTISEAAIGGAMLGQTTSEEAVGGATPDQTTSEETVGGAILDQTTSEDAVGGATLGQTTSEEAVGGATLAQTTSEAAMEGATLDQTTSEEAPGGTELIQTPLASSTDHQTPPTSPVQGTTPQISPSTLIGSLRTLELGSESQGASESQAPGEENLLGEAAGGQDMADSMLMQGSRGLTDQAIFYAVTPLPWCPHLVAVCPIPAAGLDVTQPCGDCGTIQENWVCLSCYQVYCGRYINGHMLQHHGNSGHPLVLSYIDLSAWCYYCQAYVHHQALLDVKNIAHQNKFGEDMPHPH
The following applies: cited from earlier work.

The test system of data set [6] is multiple sclerosis mice models. The following applies: two different multiple sclerosis mice models; cited from earlier work.
A short description of data set [7]: Pharmacokinetic properties (half-lives, distribution volumes). The following applies: compared with other histone deacetylase inhibitors. The class given is in vivo.

Data on three compounds can be found in US20260272881A1, “QTX125 DRUG FORMULATIONS” (Quimatryx, S.L., priority 2022, published 2026).

In general, solubility refers to how much of the substance goes into solution per volume.

≈ marks a conversion by molar mass, not a printed value.

As to 2-hydroxypropyl-β-cyclodextrin, the tolerance result in the data set on rats, mice and dogs was “well tolerated”.
For sulfobutyl ether β cyclodextrin [SBβCD], the acute toxicity result in [1] is given as “no observable effects”. Also, the renal histopathology result with mice is “no negative renal histopathology”.
For `O=C(NO)c1ccc(CNC(=O)c2[nH]c(-c3ccc(O)cc3)cc2-c2ccoc2)cc1` [QTX125, 3-(3-Furyl)-N-{4-[(hydroxyamino)carbonyl]benzyl}-5-(4-hydroxyphenyl)-1 Hpyrrole-2-carboxamide], the antitumoral efficacy result with lung cancer, in the data set with pancreatic cancer and in the data set on mantle cell lymphoma was “high antitumoral efficacy” each time. This compound also returned a solubility at 24 h in data set [2] of 140 µg/mL (≈ 335 µM). Further, the “genotoxicity, in particular clastogenicity or aneugenicity” value in data set [3] is recorded as “no evidence of genotoxicity”. Moreover, the solubility in water entry in data set [4] was “very low solubility in water”. In data set [5], the stability in solution entry was “physical and chemical instability in solution”. For the same compound, the “HDAC 6 inhibition” value on HDAC 6 was “highly selective and highly potent”. Also, the efficacy result in [6] is “high efficacy”. Moreover, the “pharmacokinetic properties (half-lives and distribution volumes)” value in data set [7] was “higher half-lives and distribution volumes”.
